One data set deals with T1, PDE4A1 (Homo sapiens, UniProt P27815).
T1 construct: they are full-length with N-terminal GST tag; GST (N); purchased BPS Biosciences 60040; host or cells: baculovirus infected Sf9 cells
The data set is described as follows: PDE enzyme activity assay (HTRF cGMP), PDE4A1. The settings on record: read-out: PDE4A1 inhibition (IC50). The class given is biochemical. On the technique in general: In TR-FRET formats the signal depends on donor and acceptor labels being close together.

The target in the next data set is HDAC1 (Homo sapiens, UniProt Q13547). The data set is described as follows: HDAC enzyme activity assay (fluorogenic substrate), HDAC1. The class given is biochemical. The settings on record: read-out: HDAC1 inhibition (IC50).
A further data set concerns the target PDE4D7 (Homo sapiens, UniProt Q08499). Description: PDE enzyme activity assay (HTRF cGMP), PDE4D7. The class given is biochemical. The settings on record: read-out: PDE4D7 inhibition (IC50). The text has this: The biochemical assay to measure PDE5A, PDE9A isoform b, PDE4D7, and PDE4A1 enzyme activities relies on the HTRF cGMP assay kit from CisBio (CisBio, Cat. #62GM2PEB), that determines the amount of cGMP present in the reaction. The enzymes were obtained from BPS Biosciences (GenBank Accession number for PDE5A: NM_001083, Cat. #60050; PDE9A: NM_001001567, Cat. #60090; PDE4D7: NM_001165899, Cat. #60047; and PDE4A1: U97584, Cat. #60040) and they are full-length with N-terminal GST tag. They were expressed in a baculovirus infected Sf9 cell expression system.
For each enzyme, enzyme activity assay was carried out in a 384-well plate in a final volume of 20 μL, as follows: • 2.5 μL of vehicle or studied compound 4× concentrated prepared in assay buffer containing 50 mM Tris-HCl, 6 mM MgCl2, pH 7.4 (PDE5A, PDE4D7, PDE4A1) and additionally 0.03% Tween-20 (PDE9A). Final percentage of DMSO was 0.5%. • 2.5 μL of PDE5A (7 μg/mL) or 2.5 μL PDE9A (0.2 μg/mL) or 2.5 μL PDE4D7 (1.25 μg/mL) or 2.5 μL PDE4A1 (1.5 μg/mL) diluted in assay buffer. […]
Fluorescence of each well was determined at […] using the plate reader EnVision (Perkin-Elmer). Results were calculated from the 665 nm/620 nm ratio. […]

The test system of the next data set is AcH3. The data set is described as follows: In-vivo activity, hippocampus of wild type mice: AcH3. Also on record: species or system mouse. The settings on record: i.p. 40 mg/kg, hippocampus one hour later. Here is the method: (§1) To determine the ability of the compounds to inhibit HDAC and PDE in the brain, the compound was administered to wild type mice by i.p. at a dose of 40 mg/kg (n=3). Another group of animals received the vehicle (1/1/8, v:v:v, DMSO/Tween 20/saline). One hour later, mice were sacrificed by cervical dislocation and their hippocampus was quickly dissected from the brains.
(§2) Total tissue homogenates were obtained by homogenizing the hippocampus in a cold lysis buffer with protease inhibitors (0.2 M NaCl, 0.1 M HEPES, 10% glycerol, 200 mM NaF, 2 mM Na4P2O7, 5 mM EDTA, 1 mM EGTA, 2 mM DTT, 0.5 mM PMSF, 1 mM Na3VO4 and Complete Protease Inhibitor Cocktail, Roche Diagnostics). The homogenate was then centrifuged at 14,000×g at 4° C. for 20 min and the supernatant aliquoted and stored at −80° C. Total protein concentrations were determined using the BioRad Bradford protein assay (BioRad Laboratories). Protein samples were analyzed as described in the “in vitro” section.

Data set [1] is described as follows: Pharmacokinetics, plasma and brain concentrations in wild type mice. The settings on record: mouse, ip. The class given is in vivo. Here is the method:
Plasma and brain samples for measuring compounds concentrations were collected at predetermined times from four wild type mice per point. Three time points were measured: 0.25, 0.5 and 1.0 hour. Compounds concentration was measured using a Xevo-TQ MS triple quadropole mass spectrometer with an electrospray ionization (ESI) source and an Acquity UPLC (Waters, Manchester, UK).
[…]. Compounds were injected as a single intraperitoneal injection. Animals were killed by decapitation.
Plasma. Blood was collected into tubes containing EDTA and plasma was collected via centrifugation (4° C., 13200 rpm, 5 min) and stored at −80° C. until analysis.
Brain. Brains were collected immediately after mice death. The brains were excised, weighed and frozen at −80° C. until further process for analysis.
Chromatographic separation was performed by gradient elution at 0.4 mL/min using an Acquity UPLC BEH C18 column (100×2.1 mm, 1.7 μm particle size; Waters). The mobile phase consisted of A: water with 0.1% formic acid, B: methanol with 0.1% formic acid. After 1.5 min at the initial condition of 95% A, solvent B was increased from 5% to 100% over 2 min, maintained at 100% for 1.5 min, then a linear gradient to initial conditions was applied for 0.1 min and maintained for 3.4 minutes to re-equilibrate the column, giving a cycle time of 8.5 min. The autosampler temperature was set at 10° C. and column temperature at 45° C.
Compounds were monitored using a triple quadrupole mass spectrometer equipped with an electrospray ionization interface. For detection and quantification, a capillary voltage of 3.5 kV and a cone voltage of 38 V were used. Source and desolvation temperatures were 150° C. and 650° C., respectively. Ultra-high purity nitrogen was used for cone gas (75 L h^−1) and desolvation gas (1000 L h^−1). The electrospray ionization operated in the positive mode, and the collision gas used was ultra-pure argon at a flow rate of 0.15 mL min^−1.
Quantification was achieved by external calibration using matrix-matched standards. Concentrations were calculated using a weighted least-squares linear regression (W=1/×). […]. The mixture was then agitated for 10 min and centrifuged at 13200 rpm for 5 min at 4° C. The resulting supernatants were transferred to a Ostro plate (Waters, Manchester, UK), designed to remove phospholipids. The resulting eluents were evaporated at 37° C. under a stream of nitrogen. Residues were dissolved in 75 μL of a mixture of methanol and water (50:50, v:v). A 10-uL aliquot of the resulting solution was injected onto the LC-MS/MS system for analysis. Frozen plasma samples were thawed at room temperature, vortexed thoroughly and subjected to the above described extraction procedure. Brain samples were thawed unassisted at room temperature and homogenized using a Branson 250 ultrasonic sonifier (Branson, Danbury, Conn., USA). When homogenized, 75 mg were weighted and extracted as described previously.
Concentration values obtained from the LC-MS/MS analyses are described in Table 4.

Data set [2] concerns acetylated histone 3 at Lys9 (AcH3K9). The data set is described as follows: HDAC activity in wild type primary neurons (Western blot AcH3K9). Format: cell-based, mouse. The settings on record: 30 min, EC50 = 50% increase in AcH3K9 over basal. (In general: In western blotting, separated proteins are transferred to a membrane and probed.)
For a further data set, the target named is T2, PDE9A isoform b (Homo sapiens, UniProt O76083).
T2 construct: they are full-length with N-terminal GST tag; GST (N); purchased BPS Biosciences 60090; host or cells: baculovirus infected Sf9 cells
Description: PDE enzyme activity assay (HTRF cGMP), PDE9A. Format: biochemical. The settings on record: recombinant enzyme; read-out: PDE9A inhibition (IC50).

Data set [3] relates to pCREB. Description: In-vivo activity, hippocampus of wild type mice: pCREB. Also on record: species or system mouse. The settings on record: i.p. 40 mg/kg, hippocampus one hour later. Here is the method:
as §1, §2

Data set [4] relates to pCREB. Description: PDE activity in wild type primary neurons (Western blot pCREB). The class given is cell-based. The settings on record: Mus musculus, Neuron, 0.5 h, 30 min, EC50 = 50% increase in pCREB over basal.
A further data set has as its target T3, PDE5A (Homo sapiens, UniProt O76074).
T3 construct: they are full-length with N-terminal GST tag; GST (N); purchased BPS Biosciences 60050; host or cells: baculovirus infected Sf9 cells
The data set is described as follows: PDE enzyme activity assay (HTRF cGMP), PDE5A. The class given is biochemical. The settings on record: recombinant enzyme; read-out: PDE5A1 inhibition (IC50).

Data set [5] has as its system phosphorylated tau (p-tau). Description: AD-related markers in Tg2576 neurons: pTau. Format: cell-based. The settings on record: Mus musculus, Neuron, 48 h, treated two days, EC50 = 50% decrease in pTau over basal.
Another data set has as its system pTau. Description: AD-related markers in Tg2576 mice after chronic treatment: pTau. Format: in vivo, mouse. The settings on record: chronic treatment (3-5 weeks), hippocampal homogenates. Here is the method: AD-related markers (APP processing, pTau and acetylated-tubulin) in Tg2576 mice. The effects of the compounds were also analysed in Tg2576 mice after chronic treatment (3-5 weeks) using hippocampal homogenates obtained in a buffer containing SDS (2%) and following the same protocol as described in the in vitro studies.

Like-named read-outs stand apart in the source and are kept apart here. Marks after values point to notes of the source that are not given here. Where only a bound is given, the exact number is not on record here.

HDAC1, sequence (Q13547 whole entry, canonical isoform): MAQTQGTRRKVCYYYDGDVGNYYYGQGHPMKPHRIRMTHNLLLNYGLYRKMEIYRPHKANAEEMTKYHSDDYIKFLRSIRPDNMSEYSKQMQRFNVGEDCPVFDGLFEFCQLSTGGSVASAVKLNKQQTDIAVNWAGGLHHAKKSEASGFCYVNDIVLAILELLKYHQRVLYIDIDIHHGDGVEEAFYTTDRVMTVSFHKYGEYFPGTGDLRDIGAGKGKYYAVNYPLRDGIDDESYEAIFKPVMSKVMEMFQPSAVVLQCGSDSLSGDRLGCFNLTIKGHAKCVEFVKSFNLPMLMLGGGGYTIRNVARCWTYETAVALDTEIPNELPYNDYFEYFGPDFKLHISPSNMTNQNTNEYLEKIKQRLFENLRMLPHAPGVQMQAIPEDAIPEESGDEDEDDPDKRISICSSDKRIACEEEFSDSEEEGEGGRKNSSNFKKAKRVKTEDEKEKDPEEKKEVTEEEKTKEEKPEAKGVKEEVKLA
T1 sequence (P27815 1-647 isoform P27815-4): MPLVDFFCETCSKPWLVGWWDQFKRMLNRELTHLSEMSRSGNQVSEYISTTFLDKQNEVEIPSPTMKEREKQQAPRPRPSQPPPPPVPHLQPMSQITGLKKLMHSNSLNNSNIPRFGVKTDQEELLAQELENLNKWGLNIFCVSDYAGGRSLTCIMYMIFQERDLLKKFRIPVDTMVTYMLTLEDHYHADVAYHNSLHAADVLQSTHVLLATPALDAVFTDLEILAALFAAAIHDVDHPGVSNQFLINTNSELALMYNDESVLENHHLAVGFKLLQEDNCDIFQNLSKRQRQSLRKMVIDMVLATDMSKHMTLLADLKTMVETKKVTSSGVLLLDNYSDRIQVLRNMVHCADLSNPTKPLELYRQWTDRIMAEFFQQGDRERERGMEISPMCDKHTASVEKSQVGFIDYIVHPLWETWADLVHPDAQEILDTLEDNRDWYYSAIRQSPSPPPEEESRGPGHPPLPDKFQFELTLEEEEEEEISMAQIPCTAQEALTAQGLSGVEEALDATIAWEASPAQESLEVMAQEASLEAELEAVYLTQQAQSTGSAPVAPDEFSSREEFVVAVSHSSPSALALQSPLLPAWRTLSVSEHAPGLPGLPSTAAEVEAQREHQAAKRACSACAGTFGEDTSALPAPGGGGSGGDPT
T2 sequence (O76083 1-533 isoform O76083-2): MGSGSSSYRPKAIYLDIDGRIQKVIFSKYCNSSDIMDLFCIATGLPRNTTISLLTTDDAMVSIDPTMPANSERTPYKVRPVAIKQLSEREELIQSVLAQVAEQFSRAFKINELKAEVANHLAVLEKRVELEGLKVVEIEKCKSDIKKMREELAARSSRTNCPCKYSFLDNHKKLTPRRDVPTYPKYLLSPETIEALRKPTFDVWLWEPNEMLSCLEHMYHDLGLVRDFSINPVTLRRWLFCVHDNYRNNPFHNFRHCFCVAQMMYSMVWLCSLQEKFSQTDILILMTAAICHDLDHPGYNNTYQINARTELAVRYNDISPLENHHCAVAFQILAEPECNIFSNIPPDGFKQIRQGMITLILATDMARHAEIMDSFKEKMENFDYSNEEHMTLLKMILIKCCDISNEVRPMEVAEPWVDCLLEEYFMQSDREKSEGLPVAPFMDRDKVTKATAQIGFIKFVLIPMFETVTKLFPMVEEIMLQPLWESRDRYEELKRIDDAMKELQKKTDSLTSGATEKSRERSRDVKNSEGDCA
PDE4D7, sequence (Q08499 1-748 isoform Q08499-11): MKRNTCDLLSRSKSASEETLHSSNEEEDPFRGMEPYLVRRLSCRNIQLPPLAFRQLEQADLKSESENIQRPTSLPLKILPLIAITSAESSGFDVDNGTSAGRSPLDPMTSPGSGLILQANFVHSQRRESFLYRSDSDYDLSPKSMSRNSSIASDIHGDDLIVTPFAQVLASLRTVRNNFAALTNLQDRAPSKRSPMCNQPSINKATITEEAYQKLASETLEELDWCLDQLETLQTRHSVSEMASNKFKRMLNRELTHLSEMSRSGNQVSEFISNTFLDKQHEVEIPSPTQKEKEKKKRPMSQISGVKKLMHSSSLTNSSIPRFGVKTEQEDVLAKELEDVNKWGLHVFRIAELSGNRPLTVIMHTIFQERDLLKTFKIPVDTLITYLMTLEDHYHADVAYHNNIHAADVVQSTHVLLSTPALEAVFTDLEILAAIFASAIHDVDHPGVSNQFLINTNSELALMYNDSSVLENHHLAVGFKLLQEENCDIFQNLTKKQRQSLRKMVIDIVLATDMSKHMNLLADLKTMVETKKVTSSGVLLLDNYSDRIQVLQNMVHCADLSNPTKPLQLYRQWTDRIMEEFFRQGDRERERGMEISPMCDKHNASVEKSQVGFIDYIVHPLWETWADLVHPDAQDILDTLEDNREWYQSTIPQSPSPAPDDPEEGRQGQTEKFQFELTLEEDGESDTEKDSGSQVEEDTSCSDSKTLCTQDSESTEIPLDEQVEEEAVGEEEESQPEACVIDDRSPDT

`COc1ccc(N(C(=O)c2c(Cl)cncc2Cl)C2CCN(c3ncc(C(=O)NO)cn3)CC2)cc1OC1CCCC1` [Example 5-04]: the IC50 (in general, the concentration that gives 50% inhibition) is > 10000 nM at PDE4A1, 10 to 1000 nM on HDAC1 and > 10000 nM at PDE4D7.
For `CCCc1nn(C)c2c(=O)[nH]c(-c3cc(OC4CCN(c5ncc(C(=O)NO)cn5)CC4)ccc3OCC)nc12` [Example 1-12], the “AcH3, increment in biological response vs basal” value with AcH3 was “++ (basal×1≦(++)<basal×2)”. Moreover, the IC50 on HDAC1 (recombinant enzyme) is 10 to 1000 nM; at PDE9A isoform b, 1000 to 10000 nM; on PDE5A, 10 to 1000 nM. Also, the “CMax (brain; nmol/Kg)” value in [1] (in vivo, 40 mg/kg) is on record as 71.3 (19.5)^c nmol/Kg. The Tmax (usually the time from dosing to the highest level) in data set [1] (dosage 40 mg/Kg, single intraperitoneal injection, wild type mice, time of maximum concentration in brain) was determined as 15 min. For the same compound, in [1] (plasma, dosage 40 mg/Kg, single intraperitoneal injection, wild type mice, at tMax, (Standard Deviation)), the peak concentration (Cmax) – broadly, the highest concentration seen after dosing – was found to be 1880 nM. Moreover, the EC50 in data set [2] (Mus musculus, Neuron, 0.5 h, read-out: AcH3 (EC50)) lay within 10 to 1000 nM; in the data set with pCREB [4] it was 10 to 1000 nM. Besides, in the data set with pCREB [3], the “pCREB, increment in biological response vs basal” value was “+++ (basal×2≦(+++)<basal×3)”.
Turning to `COc1ccc(N(CCCCCCC(=O)NO)C(=O)c2c(Cl)cncc2Cl)cc1OC1CCCC1` [Example 5-05, 7-(N-[3,5-Dichloropyridin-4-ylcarbonyl]-N-[(3-(cyclopentyloxy)-4-methoxyphenyl)]amino)-N-hydroxyheptanamide], the IC50 is 1000 to 10000 nM on PDE4A1 (recombinant enzyme), 10 to 1000 nM at HDAC1 (recombinant enzyme) and > 10000 nM on PDE4D7 (recombinant enzyme).
Regarding `C[C@@H]1CN(Cc2ncccn2)C[C@H]1c1nc2c(cnn2C2CCOCC2)c(=O)[nH]1` [PF-4447943, 6-[(3S,4S)-4-methyl-1-(pyrimidin-2-ylmethyl)pyrrolidin-3-yl]-1-(tetrahydro-2H-pyran-4-yl)-1H-pyrazolo[3,4-d]pyrimidin-4(5H)-one, reference compound], the half-inhibitory concentration (IC50) at PDE4A1 (recombinant enzyme) and on PDE5A was 1000 to 10000 nM throughout.
As to `CN1CC(=O)N2[C@H](c3ccc4c(c3)OCO4)c3[nH]c4ccccc4c3C[C@@H]2C1=O` [Tadalafil, reference compound], the EC50 (in data set [5]; in the data set with pCREB [4]) was 10 to 1000 nM in each case. The “AcH3, increment in biological response vs basal” value with AcH3 is “N.E. (N.E. means No Effect)”. Further, the IC50 at HDAC1 (recombinant enzyme) and on PDE9A isoform b was > 10000 nM throughout. For the same compound, the “pTau, increment in biological response vs basal” value with pTau is “+++ (basal×2≦(+++)<basal×3)”. The “AcH3 (EC50)” value in data set [2] is on record as “N.E”. Further, the “pCREB, increment in biological response vs basal” value in the data set on pCREB [3] was “+++ (basal×2≦(+++)<basal×3)”.
